Source: ChEMBL document CHEMBL1132460, “Affinity and selectivity of matrix metalloproteinase inhibitors: a chemometrical study from the perspective of ligands and proteins” (J Med Chem, 1999)

How the values were obtained:
[1] = target: Neutrophil collagenase (Homo sapiens, UniProt P22894); test: Inhibitory concentration against human matrix metalloprotease-8 (human neutrophil collagenase, MMP-8)
[2] = target: Stromelysin-1 (Homo sapiens, UniProt P08254); test: Inhibitory concentration against human matrix metalloprotease-3 (MMP-3)
Sequence of Stromelysin-1 (P08254 whole entry): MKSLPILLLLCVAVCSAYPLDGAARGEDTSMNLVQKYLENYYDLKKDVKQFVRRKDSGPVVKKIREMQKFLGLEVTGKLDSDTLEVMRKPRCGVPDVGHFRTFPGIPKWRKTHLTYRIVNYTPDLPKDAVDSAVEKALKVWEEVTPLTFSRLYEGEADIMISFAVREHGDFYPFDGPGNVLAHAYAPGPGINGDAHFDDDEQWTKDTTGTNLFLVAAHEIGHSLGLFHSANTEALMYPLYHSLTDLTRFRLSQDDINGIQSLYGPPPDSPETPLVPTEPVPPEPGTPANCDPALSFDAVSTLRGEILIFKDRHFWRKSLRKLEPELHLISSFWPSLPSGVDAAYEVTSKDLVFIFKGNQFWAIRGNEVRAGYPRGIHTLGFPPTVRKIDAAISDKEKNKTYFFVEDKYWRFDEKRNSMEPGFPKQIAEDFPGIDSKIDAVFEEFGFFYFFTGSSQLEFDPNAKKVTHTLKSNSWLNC

[3] = Affinity ratio of IC50 of MMP-3 to IC50 of MMP-8
[4] = Affinity ratio of IC50 of MMP-8 to IC50 of MMP-3

Sequence of Neutrophil collagenase (P22894 whole entry): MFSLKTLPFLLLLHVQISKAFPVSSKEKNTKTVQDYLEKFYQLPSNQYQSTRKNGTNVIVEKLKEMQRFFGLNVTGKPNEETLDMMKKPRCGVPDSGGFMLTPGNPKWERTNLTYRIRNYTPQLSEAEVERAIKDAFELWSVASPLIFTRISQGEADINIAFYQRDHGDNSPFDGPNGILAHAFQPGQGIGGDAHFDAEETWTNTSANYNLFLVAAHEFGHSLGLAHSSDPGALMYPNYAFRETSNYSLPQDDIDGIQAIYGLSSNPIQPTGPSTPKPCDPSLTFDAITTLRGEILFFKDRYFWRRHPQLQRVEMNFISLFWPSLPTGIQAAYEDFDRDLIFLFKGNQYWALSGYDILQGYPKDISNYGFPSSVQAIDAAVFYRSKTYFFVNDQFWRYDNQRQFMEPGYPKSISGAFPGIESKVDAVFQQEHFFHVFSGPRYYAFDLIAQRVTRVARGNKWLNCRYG

SMILES	IC50 [1] [nM]	IC50 ([2]; read-out: IC50) [nM]	log10(IC50 MMP-3/IC50 MMP-8) [3]	Selectivity [4]	IC50 [2] [nM l-1]
O=C(NO)C1Cc2ccccc2CN1S(=O)(=O)c1ccc(C(F)(F)F)cc1 (configuration not stated)	50	500	1	–	–
COc1ccc(S(=O)(=O)N2Cc3cc(N)ccc3CC2C(=O)O)cc1 (configuration not stated)	2000	–	–	0.7	10000
COc1ccc(S(=O)(=O)N2Cc3cc(NC(=O)CCC(=O)O)ccc3CC2C(=O)NO)cc1 (configuration not stated)	40	20	-0.3	–	–
O=C(NO)C1Cc2ccccc2CN1S(=O)(=O)c1cc(Br)c(Br)s1 (configuration not stated)	500	–	1.3	–	10000
COc1ccc(S(=O)(=O)N2Cc3cc(NC(=O)[C@H](C)N)ccc3CC2C(=O)O)cc1 (some centres not stated)	2000	–	–	0.7	10000
O=C(NO)C1Cc2ccccc2CN1S(=O)(=O)CCc1ccncc1 (configuration not stated)	30	900	1.48	–	–
O=C(O)[C@H]1Cc2ccccc2CN1S(=O)(=O)c1ccc(-c2ccc(F)cc2)cc1	–	400	–	1.3	–
CC(C)(C)OC(=O)Nc1ccc2c(c1)CC(C(=O)O)N(S(=O)(=O)c1ccc(-c3ccc(F)cc3)cc1)C2 (configuration not stated)	30	400	–	1.12	–
O=C(NO)C1Cc2ccccc2CN1S(=O)(=O)c1ccc2ccccc2c1 (configuration not stated)	70	400	0.76	–	–
COc1ccc(OC(=O)Nc2cccc(S(=O)(=O)N3Cc4ccccc4CC3C(=O)NO)c2)cc1 (configuration not stated)	200	3000	1.18	–	–
CCCCCCCCCCCCCCCCS(=O)(=O)N1Cc2ccccc2CC1C(=O)NO (configuration not stated)	3000	–	0.52	–	10000
CN(C)c1cccc2c(S(=O)(=O)N3Cc4ccccc4CC3C(=O)NO)cccc12 (configuration not stated)	200	400	0.3	–	–
COC(=O)c1csc(S(=O)(=O)N2Cc3ccccc3CC2C(=O)NO)c1OC (configuration not stated)	80	700	0.94	–	–
COc1ccc(S(=O)(=O)N2Cc3cc(O)ccc3CC2C(=O)O)cc1 (configuration not stated)	3000	–	–	0.52	10000
O=C(NCc1csc(S(=O)(=O)N2Cc3ccccc3CC2C(=O)NO)c1)c1ccccc1 (configuration not stated)	800	6000	0.88	–	–
O=C(NO)C1Cc2ccccc2CN1S(=O)(=O)c1ccc2[nH]c(-c3ccccc3)nc2c1 (configuration not stated)	40	500	1.1	–	–
O=C(NO)C1Cc2ccccc2CN1S(=O)(=O)c1ccc(N2CCOCC2)cc1 (configuration not stated)	100	300	0.48	–	–
COc1ccc(S(=O)(=O)N2Cc3ncn(C)c3C[C@@H]2C(=O)O)cc1	1000	–	1	–	10000
O=C(O)[C@@H]1Cc2ccccc2CN1S(=O)(=O)c1ccc(-c2ccc(F)cc2)cc1	–	–	–	0.4	10000
CSc1nccc(-c2ccc(S(=O)(=O)N3Cc4ccccc4CC3C(=O)NO)s2)n1 (configuration not stated)	20	2000	2	–	–
O=C(NO)C1Cc2ccccc2CN1S(=O)(=O)c1cc(S(=O)(=O)c2ccccc2)cs1 (configuration not stated)	2000	–	0.7	–	10000

Further lines, results first:

IC50 [1] [nM]	IC50 ([2]; read-out: IC50) [nM]	log10(IC50 MMP-3/IC50 MMP-8) [3]	Selectivity [4]	IC50 [2] [nM l-1]	SMILES
3	20	0.82	–	–	COc1ccc(S(=O)(=O)N2Cc3cc(NC(=O)OC(C)(C)C)ccc3CC2C(=O)NO)cc1 (configuration not stated)
2	20	1	–	–	Nc1ccc2c(c1)CN(S(=O)(=O)c1ccc(-c3ccc(F)cc3)cc1)C(C(=O)NO)C2 (configuration not stated)
2	20	1	–	–	COc1ccc(S(=O)(=O)N2Cc3cc(NC(=O)[C@H](C)NC(=O)OC(C)(C)C)ccc3CC2C(=O)NO)cc1 (some centres not stated)
10	100	1	–	–	O=C(NO)C1Cc2ccccc2CN1S(=O)(=O)c1ccc2oc3ccccc3c2c1 (configuration not stated)
2	20	1	–	–	CCOC(=O)Oc1ccc2c(c1)CN(S(=O)(=O)c1ccc(OC)cc1)C(C(=O)NO)C2 (configuration not stated)
1	10	1	–	–	COc1ccc(S(=O)(=O)N2Cc3cc(O)ccc3CC2C(=O)NO)cc1 (configuration not stated)
10	100	1	–	–	CC(C)(C)OC(=O)Nc1ccc2c(c1)CN(S(=O)(=O)c1ccc(-c3ccc(F)cc3)cc1)C(C(=O)NO)C2 (configuration not stated)
2	20	1	–	–	O=C(NO)C1Cc2ccccc2CN1S(=O)(=O)c1ccc(Oc2ccccc2)cc1 (configuration not stated)
2	20	1	–	–	O=C(NO)C1Cc2ccccc2CN1S(=O)(=O)Cc1ccc(-c2ccccn2)s1 (configuration not stated)
2	30	1.18	–	–	CN(C)c1ccc(Oc2ccc(S(=O)(=O)N3Cc4ccccc4CC3C(=O)NO)cc2)cc1 (configuration not stated)
2	20	1	–	–	CN(C)c1ccc(-c2ccc(S(=O)(=O)N3Cc4ccccc4CC3C(=O)NO)cc2)cc1 (configuration not stated)
10	40	0.6	–	–	COc1ccc(S(=O)(=O)N2Cc3cc(NC(=O)[C@H](CC(=O)OC(C)(C)C)NC(=O)Cc4ccccc4)ccc3CC2C(=O)NO)cc1 (some centres not stated)
2	20	1	–	–	O=C(NO)C1Cc2ccccc2CN1S(=O)(=O)c1ccc(OCc2ccc(F)cc2)cc1 (configuration not stated)
3	20	0.82	–	–	O=C(NO)C1Cc2ccccc2CN1S(=O)(=O)c1ccc(-c2ccc(Cl)cc2)cc1 (configuration not stated)
2	30	1.18	–	–	CCCCOc1ccc(S(=O)(=O)N2Cc3ccccc3CC2C(=O)NO)cc1 (configuration not stated)
3	30	1	–	–	O=C(c1ccccc1)c1ccc(S(=O)(=O)N2Cc3ccccc3CC2C(=O)NO)cc1 (configuration not stated)
8	30	0.57	–	–	COc1ccc(S(=O)(=O)Oc2ccc3c(c2)CN(S(=O)(=O)c2ccc(OC)cc2)C(C(=O)NO)C3)cc1 (configuration not stated)
